# Assay results: patent US9738605B2, “Hybrid compounds of curcumin and melatonin as neuroprotectants for neurodegenerative disorders” (VIRGINIA COMMONWEALTH UNIVERSITY, priority 2013, dated 2017)
# Entries after “also recorded” stand apart in the source; their conditions may differ.
# Experiments:
# HT22 cells = assay: Hydrogen peroxide toxicity assay in HT22 cells; type: cell-based, mouse; conditions: up to 0.3 μM, H2O2 500 μM, 24 h
# Method: HT22 cells were seeded in 96-well plates (4×10^3 cells/well) in growth medium and incubated for 24 h at 37° C. The medium was removed and compounds were added at the indicated concentrations in fresh growth medium, and the cells were incubated for another 1 h. H2O2 was then added at a final concentration of 500 μM, and the plates were then incubated for 24 h. Cell viability was assessed by MTT assay as previously described. Values were expressed as a percentage relative to the negative (H2O2-free) control.
# APP/PS1 transgenic mice = assay: Oral treatment of APP/PS1 transgenic AD mouse model; type: in vivo; conditions: 50 mg/kg oral gavage, 12 weeks, 4 month-old APP/PS1 mice
# Method: FIG. 8A-D. AM24 (7) (50 mg/kg) oral gavage treatment in 4 month-old APP/PS1 transgenic animals during 12 weeks. Immunochemistry was performed using anti-Aβ 1-16 Clone 82E1 (1/1000, Mouse) in (A) control and (B) AM24-treated mice. Percent area of (C) Cortex (Cx) and (D) Cortex plus Hippocampus (CxHp) was measured. Statistical analysis was performed by T test *p<0.05. Experiment was assessed with APP/PS1-saline (n=4) and APP/PS1-AM24 (n=7) mice. Scale bar represents 500 μm.
# FIG. 9A-C. AM24 (7) (50 mg/kg) oral gavage treatment during 12 weeks in 4 month-old APP/PS1 transgenic animals. Immunochemistry was performed using anti-Aβ 1-16 Clone 82E1 (1/1000, Mouse) in (A) control and (B) AM24-treated mice. (C) Percent area Hippocampus (Hp) was measured. Experiment was assessed with APP/PS1-saline (n=4) and APP/PS1-AM24 (n=7) mice. […] Scale bar represents 200 μm.
# FIG. 10A-E. AM24 (7) (50 mg/kg) oral gavage treatment during 12 weeks in 4 month-old APP/PS1 transgenic animals. Immunochemistry in (A) control and (B) AM24-treated mice and (C) Western Blot were performed using anti-GFAP (1/250 and 1/2000 respectively, Rabbit). (D) Band Intensity was compared with saline treated APP/PS1 mice. (E) Percent area Hippocampus (Hp) was measured. Experiment was assessed with APP/PS1-saline (n=4) and APP/PS1-AM24 (n=7) mice. […] Scale bar represents 200 μm. […]
# FIG. 15A-B. AM24 (7) (50 mg/kg) oral gavage treatment in 4 month-old APP/PS1 transgenic animals during 12 weeks. (A) Western-blot was performed using anti-HNE (1/2000, Rabbit) stress marker. (B) Band Intensity was compared with saline treated APP/PS1 mice. Experiment was assessed with APP/PS1-saline (n=4) and APP/PS1-AM24 (n=7) mice. Statistical analysis was performed by T test ** p<0.01.
# FIG. 16A-B. AM24 (50 mg/kg) oral gavage treatment in 4 month-old APP/PS1 transgenic animals during 12 weeks. (A) Mitochondrial complex Western-blot was performed using OXPhOS cocktail antibody (1/2000, Mouse) to measure I, II, III and V Complex, and MTCO CIV for complex IV (1/2000, Mouse). (B) Band Intensity was compared with saline treated APP/PS1 mice. Experiment was assessed with APP/PS1-saline (n=4) and APP/PS1-AM24 (n=7) mice. Statistical analysis was performed by T test **p<0.01.
# APP/PS1 (amyloid precursor protein/presenilin-1) transgenic mice are a well known model for Alzheimer's disease. In this study, APP/PS1 mice were treated with 50 mg/kg of AM24 (compound 7) and the effects on cell type/morphology and the levels of several neuroinflammatory and stress markers was observed. […] However, there was no decrease in hippocampal plaques (FIG. 9A-C). Additionally, there was no change in the expression of glial fibrillary acid protein (GFAP), a neuroinflammation marker, in the hippocampus of AM24 treated animals (FIG. 10A-E).
# Aβ42 = target: T1, Aβ42 (Homo sapiens, UniProt P05067); assay: Thioflavin T assay of Aβ42 fibril formation; type: biochemical; conditions: up to 100 μM, 48 h, ThT
# T1 construct: purchased American Peptide, Inc. (Sunnyvale, Calif.)
# Method: Briefly, 1 μL of each compound solution in DMSO (0.01 μM to 100 μM) was added to corresponding wells in a 96-well plate. Each concentration was prepared in independent triplicates and a solvent control was included. To each well, 9 μL of 25 μM Aβ42 in PBS (pH 7.4) was added, and then plates were incubated in dark at room temperature for 48 h. Next, 200 μL of a 5 μM ThT in 50 mM glycine solution (pH 8.0) was added to each well.
# MC65 cells = assay: Neuroprotection assay in MC65 cells (−TC, MTT)
# Method: MC65 cells were washed twice with PBS, resuspended in Opti-MEM, and seeded in 96-well plates (4×10^4 cells/well). Indicated compounds were then added, and cells were incubated at 37° C. under +TC or −TC conditions for 72 h. Then, 10 μL of MTT (5 mg/mL in PBS) were added and the cells were incubated for another 4 h. Cell medium was then removed, and the remaining formazan crystals produced by the cellular reduction of MTT were dissolved in DMSO. Absorbance at 570 nm was immediately recorded using a FlexStation® 3 plate reader (Molecular Devices, CA).
# [1] = test system: intracellular oxidative stress in MC65 cells; assay: ROS production assay in MC65 cells (DCFH-DA); type: cell-based; conditions: −TC, 48 h, DCFH-DA 25 μM, read-out: IC50 for suppression of intracellular oxidative stress
# Method: Cells were harvested, washed twice with cold PBS, then suspended in PBS and incubated with DCFH-DA (25 μM) in dark for 1 h. Fluorescence was analyzed by flow cytometry using a Millipore Guava® easyCyte flow cytometer.
# in vitro = conditions: PAMPA
# Method: In the same assay, 10 commercial drugs with known CNS penetration were also tested as positive controls, and their experimental values were compared to reported values (Table 1).
# T1 sequence (P05067 672-713 limits assumed): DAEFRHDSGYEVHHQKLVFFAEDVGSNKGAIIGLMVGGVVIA
smiles,measurement,setting,value
"COc1ccc2[nH]cc(CCNC(=O)CC(=O)CCc3ccc(O)cc3)c2c1 [Compound 7, 5-(4-hydroxy-phenyl)-3-oxo-pentanoic acid [2-(5-methoxy-1H-indol-3-yl)-ethyl]-amide]",protection from H2O2-induced cytotoxicity,HT22 cells,no protection
same,NADH Dehydrogenase-Complex I (mitochondrial complex Western blot),APP/PS1 transgenic mice,powerful increase
same,cortical and cortex/hippocampal amyloid plaques,APP/PS1 transgenic mice,significant decrease
same,expression of 8-Hydroxyguanosine (80HG) in the hippocampus,APP/PS1 transgenic mice,significant decrease
same,expression of heme-oxygenase-1 (HO-1),APP/PS1 transgenic mice,no change
same,"total number and type of glial cells (hippocampus, IBA-1)",APP/PS1 transgenic mice,remained constant
same,expression of 4-hydroxy-2-nonenal (HNE),APP/PS1 transgenic mice; vs saline,significant decrease
same,expression of GFAP in the hippocampus,APP/PS1 transgenic mice; listed as AM24,no change; also recorded: no differences were detected
same,hippocampal amyloid plaques,APP/PS1 transgenic mice; listed as AM24,no decrease; also recorded: no differences were detected
same,inhibition of the formation of Aβ42 fibrils,Aβ42,no significant inhibition
same,neuroprotection of MC65 cells from −TC induced cell death,"MC65 cells; 0.3 μM, −TC, 72 h, MTT",significant and comparable protection
same,EC50,"MC65 cells; MC65, 72 h, read-out: EC50 for neuroprotection of MC65 cells",27.6 ± 9.4 nM
same,IC50,[1],~68 nM
same,Papp,in vitro,7.9 ± 0.6 ×10⁻⁶ cm/s
